Active and inactive are the calls of the source. The rule behind the calls is not given here.
What was measured:
MDA-MB-231 [1] = assay: Induction of apoptosis in human MDA-MB-231 cells assessed as increase in Bax protein expression at 1 uM incubated for 24 hrs by Western blot analysis; assay type: functional, cell-based
4T1 [2] = assay: Antitumor activity against mouse 4T1 cells implanted in Balb/c mouse assessed as tumor growth inhibition by measuring T/C ratio at 50 mg/kg administered intratumorally every four days for 14 days in the presence of liquid cyanoacrylate; assay type: functional; details: route it(Intratumoral), time 14 day
MDA-MB-231 [3] = assay: Induction of apoptosis in human MDA-MB-231 cells assessed as increase in p53 level at 100 nM incubated for 48 hrs; assay type: functional, cell-based
MDA-MB-231 [4] = assay: Induction of apoptosis in human MDA-MB-231 cells assessed as apoptotic cells at 10 uM incubated for 24 hrs by Annexin V-FITC/propidium iodide staining based flow cytometric method (reference value: 5.68%); assay type: functional
MDA-MB-231 [5] = assay: Induction of apoptosis in human MDA-MB-231 cells assessed as decrease in Bcl-2/Bax ratio at 0.5 to 3 times of IC50 concentration by Western blot analysis; assay type: functional, cell-based
[6] = Toxicity in Balb/c mouse xenografted with mouse 4T1 cells assessed as heart lesions at 200 mg/kg administered topically over the tumor surface every two days for 14 days in the presence of cyanoacrylate by H&E staining based histopathological analysis; assay type: organism-based; details: in vivo, topical_or_ocular, 336 h, route top, time 14 day
[7] = Toxicity in Balb/c mouse implanted with mouse 4T1 cells assessed as lung lesions at 50 mg/kg administered intratumorally every four days for 14 days in the presence of liquid cyanoacrylate by H&E staining based histopathological analysis; assay type: organism-based; details: in vivo, other, 336 h, route it(Intratumoral), time 14 day
4T1 [8] = assay: Antitumor activity against mouse 4T1 cells implanted in Balb/c mouse assessed as nuclei disappearance at 50 mg/kg administered intratumorally every four days for 14 days in the presence of liquid cyanoacrylate; assay type: functional, organism-based; details: route it(Intratumoral), time 14.0 day
4T1 [9] = assay: Antitumor activity against mouse 4T1 cells xenografted in Balb/c mouse assessed as shrinkage of nucleus at 200 mg/kg administered topically over the tumor surface every two days for 14 days in the presence of cyanoacrylate; assay type: functional, organism-based; details: route top, time 14.0 day
4T1 [10] = assay: Antitumor activity against mouse 4T1 cells implanted in Balb/c mouse assessed as TUNEL positive cells at 50 mg/kg administered intratumorally every four days for 14 days by TUNEL staining analysis (reference value: 6.55%); assay type: functional; details: route it(Intratumoral), time 14 day
4T1 [11] = assay: Antitumor activity against mouse 4T1 cells implanted in Balb/c mouse assessed as TUNEL positive cells at 50 mg/kg administered intratumorally every four days for 14 days in the presence of liquid cyanoacrylate by TUNEL staining analysis; assay type: functional; details: route it(Intratumoral), time 14 day
[12] = Toxicity in Balb/c mouse implanted with mouse 4T1 cells assessed as kidney lesions at 50 mg/kg administered intratumorally every four days for 14 days by H&E staining based histopathological analysis; assay type: organism-based; details: in vivo, other, 336 h, route it(Intratumoral), time 14 day
[13] = Toxicity in Balb/c mouse xenografted with mouse 4T1 cells assessed as liver lesions at 200 mg/kg administered topically over the tumor surface every two days for 14 days in the presence of cyanoacrylate by H&E staining based histopathological analysis; assay type: organism-based; details: in vivo, topical_or_ocular, 336 h, route top, time 14 day
HeLa = assay: Antiproliferative activity against human HeLa cells assessed as inhibition of cell growth by MTT assay; assay type: functional, cell-based
MDA-MB-231 [14] = assay: Induction of apoptosis in human MDA-MB-231 cells assessed as late apoptotic cells by measuring green fluorescence at 0.01 to 1 uM by Annexin V-FITC staining based fluorescence microscopic analysis; assay type: functional, cell-based; details: dose 0.01-1 µM
MDA-MB-231 [15] = assay: Induction of apoptosis in human MDA-MB-231 cells assessed as increase in caspase 3 expression at 0.5 to 3 times of IC50 concentration by Western blot analysis; assay type: functional, cell-based
[16] = Drug metabolism in Balb/c mouse spleen implanted with mouse 4T1 cells assessed as 2-methyl hydroxylation of parent compound causing metabolite formation by LC-MS analysis; assay type: ADME, tissue-based
MDA-MB-231 [17] = assay: Induction of cell cycle arrest in human MDA-MB-231 cells assessed as increase in G2 phase cells at 10 uM incubated for 24 hrs by PI staining based flow cytometric analysis (reference value: 8.95%); assay type: functional
[18] = Acute toxicity in mouse assessed as death rate ratio at 300 mg/kg, ip measured over 14 days; assay type: organism-based; details: in vivo, 336 h, time 14 day
[19] = Drug metabolism in Balb/c mouse tumor implanted with mouse 4T1 cells assessed as dechlorination of parent compound causing metabolite formation by LC-MS analysis; assay type: ADME, tissue-based, Neoplasm
MDA-MB-231 [20] = assay: Induction of apoptosis in human MDA-MB-231 cells assessed as increase in caspase 9 expression at 0.5 to 3 times of IC50 concentration by Western blot analysis; assay type: functional, cell-based
4T1 [21] = assay: Antitumor activity against mouse 4T1 cells xenografted in Balb/c mouse assessed as disordered nuclei at 200 mg/kg administered topically over the tumor surface every two days for 14 days in the presence of cyanoacrylate; assay type: functional, organism-based; details: route top, time 14.0 day
MDA-MB-231 [22] = assay: Induction of apoptosis in human MDA-MB-231 cells assessed as increase in HTRA2/omi level at 100 nM incubated for 48 hrs; assay type: functional, cell-based
[23] = Toxicity in Balb/c mouse implanted with mouse 4T1 cells assessed as kidney lesions at 50 mg/kg, ip administered every two days for 14 days by H&E staining based histopathological analysis; assay type: organism-based; details: in vivo, 336 h, time 14 day
4T1 [24] = assay: Antitumor activity aginst mouse 4T1 cells implanted in Balb/c mouse assessed as nuclei shrinkage at 50 mg/kg administered intratumorally every four days for 14 days; assay type: functional, organism-based; details: route it(Intratumoral), time 14.0 day
4T1 [25] = assay: Antitumor activity against mouse 4T1 cells implanted in Balb/c mouse assessed as apoptotic rate of dissected tumor cell at 50 mg/kg administered intratumorally every four days for 14 days in the presence of liquid cyanoacrylate by flow cytometric analysis (reference value: 64.83%); assay type: functional; details: route it(Intratumoral), time 14 day
[26] = Drug metabolism in Balb/c mouse liver implanted with mouse 4T1 cells assessed as 2-methyl hydroxylation of parent compound causing metabolite formation by LC-MS analysis; assay type: ADME, tissue-based
MDA-MB-231 [27] = assay: Induction of apoptosis in human MDA-MB-231 cells assessed as deep cytoplasm at 1 uM incubated for 24 hrs by transmission electron microscopic analysis; assay type: functional, cell-based
[28] = Drug metabolism in Balb/c mouse liver implanted with mouse 4T1 cells assessed as dechlorination of parent compound causing metabolite formation by LC-MS analysis; assay type: ADME, tissue-based
MDA-MB-231 [29] = assay: Antiproliferative activity against human MDA-MB-231 cells assessed as inhibition of cell growth by MTT assay; assay type: functional, cell-based
4T1 [30] = assay: Antitumor activity aginst mouse 4T1 cells implanted in Balb/c mouse assessed as nuclei disappearance at 50 mg/kg, ip administered every two days for 14 days; assay type: functional, organism-based; details: time 14.0 day
MDA-MB-231 [31] = assay: Induction of cell cycle arrest in human MDA-MB-231 cells assessed as increase in S phase cells at 10 uM incubated for 24 hrs by PI staining based flow cytometric analysis (reference value: 16.61%); assay type: functional
[32] = Acute toxicity in mouse assessed as death rate ratio at 378 mg/kg, ip measured over 14 days; assay type: organism-based; details: in vivo, 336 h, time 14 day
[33] = Acute toxicity in mouse assessed as animal death at 5000 mg/kg, po; assay type: organism-based; details: in vivo
MDA-MB-231 [34] = assay: Induction of apoptosis in human MDA-MB-231 cells assessed as reduction in cell volume at 1 uM incubated for 24 hrs by transmission electron microscopic analysis; assay type: functional, cell-based
[35] = Drug metabolism in Balb/c mouse kidney implanted with mouse 4T1 cells assessed as dechlorination of parent compound causing metabolite formation by LC-MS analysis; assay type: ADME, tissue-based

Cc1[nH]c2ccccc2c1C1=C(Cl)C(=O)C(Cl)=C(N2CCOCC2)C1=O
Activity (MDA-MB-231 [1]): Active
T/C (4T1 [2]): 42%
Activity (MDA-MB-231 [3]): Active
Activity (MDA-MB-231 [4]): 31.69%
Activity (MDA-MB-231 [5]): Active
Activity [6]: Non-Toxic
Activity [7]: Non-Toxic
Activity (4T1 [8]): Active
Activity (4T1 [9]): Active
Activity (4T1 [10]): 91.48%
Activity (4T1 [11]): 49.52%
Activity [12]: Non-Toxic
Activity [13]: Non-Toxic
IC50 (HeLa): 320 nM
Activity (MDA-MB-231 [14]): Active
Activity (MDA-MB-231 [15]): Active
Drug metabolism [16]: Metabolite_Detected
Activity (MDA-MB-231 [17]): 55.05%
Ratio [18]: 0.33
Drug metabolism [19]: Metabolite_Detected
Activity (MDA-MB-231 [20]): Active
Activity (4T1 [21]): Active
Activity (MDA-MB-231 [22]): Active
Activity [23]: Non-Toxic
Activity (4T1 [24]): Active
Activity (4T1 [25]): 76.24%
Drug metabolism [26]: Metabolite_Detected
Activity (MDA-MB-231 [27]): Active
Drug metabolism [28]: Metabolite_Detected
IC50 (MDA-MB-231 [29]): 70 nM
Activity (4T1 [30]): Active
Activity (MDA-MB-231 [31]): 28.47%
Ratio [32]: 0.5
Activity [33]: Non-Toxic
Activity (MDA-MB-231 [34]): Active
Drug metabolism [35]: Metabolite_Detected

From ChEMBL document CHEMBL5137015, “Design, synthesis, and evaluation of a novel series of mono-indolylbenzoquinones derivatives for the potential treatment of breast cancer” (Eur J Med Chem, 2022)
